# Reference: ChEMBL document CHEMBL1146099, “Anthranilic acid based CCK1 receptor antagonists and CCK-8 have a common step in their "receptor desmodynamic processes"” (J Med Chem, 2006)
# pIC50: −log10 of the molar value.
# Biological target: T1, Cholecystokinin receptor type A (Homo sapiens, UniProt P32238)
# T1 sequence (P32238 whole entry): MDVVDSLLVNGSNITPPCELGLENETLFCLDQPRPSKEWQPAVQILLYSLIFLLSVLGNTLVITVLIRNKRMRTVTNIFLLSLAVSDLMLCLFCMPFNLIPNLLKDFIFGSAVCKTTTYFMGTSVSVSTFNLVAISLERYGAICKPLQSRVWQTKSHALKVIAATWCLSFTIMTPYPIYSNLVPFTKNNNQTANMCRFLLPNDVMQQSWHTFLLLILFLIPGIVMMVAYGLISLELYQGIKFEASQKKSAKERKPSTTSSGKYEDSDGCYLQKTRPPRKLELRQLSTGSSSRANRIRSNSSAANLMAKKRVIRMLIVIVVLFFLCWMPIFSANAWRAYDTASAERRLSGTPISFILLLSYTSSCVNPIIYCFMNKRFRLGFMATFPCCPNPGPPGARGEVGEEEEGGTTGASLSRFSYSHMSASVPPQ
# Test: Displacement of [111In]DTPA-Glu-Gly-[Tyr27(SO3H)]-CCK8 from human CCK1 receptor in A431 cells
# Type: cell-based, A-431
row,Compound,pIC50
1,O=C(Nc1ccccc1C(=O)NC(Cc1ccccc1)C(=O)O)c1cc2ccccc2[nH]1 (racemic),6.71
2,CC(=O)N/C(=C/c1ccccc1)C(=O)Nc1ccccc1C(=O)NC(Cc1ccccc1)C(=O)O (racemic),4.90
3,O=C(/C=C/c1ccccc1)Nc1ccccc1C(=O)NC(Cc1ccccc1)C(=O)O (racemic),5.40
4,CC(NC(=O)c1ccccc1NC(=O)c1cc2ccccc2[nH]1)C(=O)O (racemic),5.55
5,CCCCCN(CCCOC)C(=O)C(CCC(=O)O)NC(=O)c1ccc(Cl)c(Cl)c1 (stereo not given) [LOXIGLUMIDE],6.71
